# Measurements published in US20130205416A1 (priority 2010, published 2013).
# Ends that are not written are not given here.
# Tested on: A/WSN/33 H1N1 virus
# Type: cell-based, Influenza A virus
sequence,measurement,value
"RRKKWLVFFVIYFFR [FP4, RRKKWLVFFVIYFFR]",knockdown,100%
